Results: US20240043860A1, “NOVEL HYDROXYPHENYLPYRUVATE DIOXYGENASE POLYPEPTIDES AND METHODS OF USE THEREOF” (Syngenta Crop Protection AG, priority 2020, published 2024)

Legend:
Assay in all cases: coupled HGO assay
Type in all cases: biochemical, Apera spica-venti
[1] = tested on: HPPD variant APESV V209 (SEQ ID NO: 18)
Procedure: (§1) DNA sequences (SEQ ID NOs: 65-118, 128, 130, 131, and 133), synthesized for expression in E. coli, by GeneWiz (USA) to encode HPPD variants (SEQ ID NOs: 5-58, 122, 124, 125 and 127) derived from either Avena sativa (SEQ ID NOs: 122, 124), Alopecurus myosuroides (SEQ ID NO: 126) or Apera spica-venti (SEQ ID NOs: 123, 125) were transformed into E coli BL21 (DE3) (New England Biolabs) and grown in 0.5 ml Terrific broth +50 ug/ml Kanamycin media in a 96-deepwell block overnight (37° C., 900rpm). 25 ul of the overnight cultures were inoculated into fresh 96-deepwell block containing 1 ml Formedium Autoinduction Media (AIM). The AIM cultures were grown for 3h at 37° C. (900rpm) and then transferred to 20° C. overnight (900rpm) to allow protein expression. The overnight cultures were centrifuged and 500 ul of Cellytic B (Sigma Aldrich) was added to resuspend the cell pellets. The coupled HGO assay (Siehl et al, 2014) is used to generate IC50 values for the HPPD variants of interest.
(§2) E. coli BL21 (DE3) cells were transformed with a pET24a vector containing a C-terminally his-tagged Arabidopsis HGO gene, grown and induced overnight as described for the HPPD variants above. The cell pellet was resuspended in phosphate buffered saline at pH 7.4 containing 10% Glycerol, 1mm Tris[2-carboxyethyl] phosphine-HCl (TCEP) plus 30 mM Imidazole and lysed using lysozyme/benzonase. The extract was clarified by low speed centrifugation and purified in the same buffer down a 1 ml His Gravitrap column. The bound HGO was eluted in 0.25M imidazole and the fractions pooled and beaded into liquid nitrogen. All procedures apart from the centrifugation and beading steps were carried out under a nitrogen atmosphere.
(§3) The coupled HGO assay is carried out by adding 10 ul of HPPD extract to a 96-well plate and then adding 40 ul of reaction buffer (50 mM Bis Tris Propane, pH7.0, 25 mM sodium-L-ascorbate, 400μM mercaptoethanol, 50 μM Fe(II)SO4). The plates are left to incubate for 5 minutes on ice. […] 200 ul of HPP/HGO (197 μM hydroxyphenylpyruvic acid, 16 μl/ml Homogentisic Acid Oxidase in reaction buffer as described above) buffer is then added to the well and the reaction is regularly monitored (e.g. every 30 seconds-5 minutes) for absorbance at 330 nm for a given time period (e.g., for between 15-60 minutes). The data can then be used to calculate the IC50 value for each HPPD variant of interest.

[2] = tested on: HPPD variant APESV V200 (SEQ ID NO: 6)
Procedure: as §1, §2, §3

[3] = tested on: HPPD variant APESV V208 (SEQ ID NO: 15)
Procedure: as §1, §2, §3

| Compound | IC50 [1] [µM] | IC50 [2] [µM] | IC50 [3] [µM] |
| --- | --- | --- | --- |
| Cn1nnnc1NC(=O)c1ccc(C(F)(F)F)nc1-n1cncn1 [Herbicide D, N-(1-methyltetrazol-5-yl)-2-(1,2,4-triazol-1-yl)-6-(trifluoromethyl)pyridine-3-carboxamide] | 95 | 85.9 | – |
| bicyclopyrone | – | – | 1 |
